In patent publication US7754480B2, “Method of isolating stem cells” (Duke University, priority 1998, dated 2010):
One block for each compound: values may come before it.

What was measured:
[1] = Solubility and membrane permeability of the aldehyde reagent (BAAA); type: physicochemical
Procedure: Due to the inherent instability of aldehydes in aqueous solution, the reagent is prepared and stored as an acetal. […] Intracellular fluorescence can be used to select cells.

ALDH in L1210/cpa cells = test: BAAA staining of cyclophosphamide-resistant ALDH+ L1210/cpa cells, flow cytometry; type: cell-based, murine
Description: (§1) FIGS. 1A-1D. BAAA staining identifies cells with high levels of ALDH activity. L1210/cpa is a derivative of the L1210 leukemic cell line that overexpresses ALDH. (FIGS. 1A and 1B represent L1210 cells, plus DEAB and minus DEAB, respectively; FIGS. 1C and 1D represent L1210/cpa cells, plus and minus DEAB, respectively).
(§2) K562, L1210 and L1210/cpa cells (ATCC) were maintained in suspension in RPMI 1640 media supplemented with 10% Fetal Calf Serum (FCS) and 5×10^−5 M β-mercaptoethanol.
(§3) To assay whether BAAA would permit the specific selection of ALDH^+ cells, studies initially determined an optimal response dose for the BAAA reagent in a murine cell line previously selected for cylophoshamide-resistance, L1210/cpa, that is known to be ALDH^+ (FIG. 1). The parental cell line, L1210 (FIGS. 1A and 1B) is cylophosphamide-sensitive and ALDH^−. […] In these studies, the BAAA could be used at a final concentration as low as 5 μM. This molar concentration is 10-fold lower than that used with the dansylated reagent.

L1210 cells = test: BAAA staining of parental ALDH- L1210 cells, flow cytometry; type: cell-based, murine; details: cyclophosphamide-sensitive parental L1210
Description: as §1, §2, §3

[2] = tested on: human ALDH1 in K562 cells; test: BAAA staining of K562 cells expressing ALDH1; type: cell-based
Procedure: as §2
Multiple different ALDH isoenzymes exist and these may display different abilities to convert BAAA. […] Therefore, a human cell line known to express ALDH1, K562, was assayed with this novel reagent.

ALDH in UCB cells = test: BAAA staining of mononuclear umbilical cord blood (UCB) cells, flow cytometry; type: cell-based, human
Procedure: Human umbilical cord blood (UCB), intended for disposal, was collected into sterile bottles containing anticoagulant citrate buffer. The UCB used in these studies were processed within 24 hours of being harvested. White cells were enriched through a preliminary red cell agglutination where the UCB was diluted 1:2 with Dulbecco's phosphate buffered saline (PBS) at room temperature. These cells were then brought to a final concentration of 1% Hespan (DuPont Pharma, Wilmington, Del.) and were left to stand undisturbed for 1 hour. Non-agglutinated white blood cells were harvested and residual red cells were hemolysed at 37° C. in 0.17 M NH4Cl containing 10 mM Tris-HCl, pH 7.2 and […] EDTA. The recovered cells were washed in IMDM containing 2% FCS and mononuclear cells are then purified using Ficoll-Hypaque (1.077 g/ml). When held overnight, the cells were kept on ice in a 4° C. refrigerated room in IMDM with 20% FCS.
Mononuclear UCB cells were resuspended at 10^6 cells/ml in IMDM containing 2% FCS and were labeled with 1 μM BAAA for 30 min. When used, verapamil was included at […]. After staining, the cells were washed with ice cold staining media and maintained on ice until their analysis and sorting. The cells were then resuspended in staining media with […] 7-aminoactinomycin D (7AAD) (Molecular Probes; Eugene, OR). For antibody staining to permit multiparameter analyses, the cells were resuspended in staining media (100 μl) and antibodies were added directly to the cell suspensions. The cells were incubated on ice for 20 min. and then washed again in ice cold staining media. The cells were then analyzed or sorted on a FAC Star Plus cell sorter (BDIS) equipped with dual Coherent I -90 argon-dye laser. The BAAA was excited at 488 nm and emissions were detected using 515 DF20filter in FL1. Dead and dying cells were excluded on the basis of their high emission in the far red wavelength due to their uptake of 7AAD.
Umbilical Cord Blood (UCB) was chosen for its increasing promise as a source for transplantable hematopoietic stem cells. […]

[3] = tested on: MDR efflux pump in UCB cells; test: Efflux of converted BAAA from UCB cells with or without verapamil; details: product of the ALDH conversion of BAAA
Procedure: When used, verapamil was included at 50 mM. After staining, the cells were washed with ice cold staining media and maintained on ice until their analysis and sorting. The cells were then resuspended in staining media with 10 mg/ml 7-aminoactinomycin D (7AAD) (Molecular Probes; Eugene, OR). For antibody staining to permit multiparameter analyses, the cells were resuspended in staining media (100 μl) and antibodies were added directly to the cell suspensions. The cells were incubated on ice for 20 min. and then washed again in ice cold staining media. The cells were then analyzed or sorted on a FAC Star Plus cell sorter (BDIS) equipped with dual Coherent I -90 argon-dye laser. […] Dead and dying cells were excluded on the basis of their high emission in the far red wavelength due to their uptake of 7AAD.
Since this reagent had never been previously characterized, the susceptibility of converted BAAA to MDR efflux was assayed. Although BODIPY aminoacetaldehyde passes through the cell membrane without active transport, the product of the ALDH conversion (BODIPY aminoacetate) might well be a substrate for the MDR pump.

[4] = Stability of BODIPY aminoacetaldehyde diethyl acetal on storage and in 1 N HCl; type: physicochemical
Procedure: The aldehyde dehydrogenase substrate is prepared as BODIPY aminoacetaldehyde diethyl acetal and lyophilized in 0.5 micromole aliquots. […] The acetal is then solubilized in DMSO to a final concentration of 5 mM. […] To convert the acetal to an acetaldehyde, aliquots of this solution are brought to a final concentration of 1 N HCl. […] After 2 hours in 1 N HCl, the vast majority of the BODIPY aminoacetaldehyde diethyl acetal has converted to BODIPY aminoacetaldehyde (BAAA), and is then diluted to […] in Dulbecco's phosphate buffered saline (PBS). This stock is added directly to cells prepared in Iscove's Modified Dulbecco's Medium (IMDM) with 2% FCS at concentrations ranging from 1 to 5 μM.)(See also FIG. 6.).

[5] = tested on: human hematopoietic cells; test: Preliminary DAAA staining of human hematopoietic cells, flow cytometry; type: cell-based; details: signal intensity too high in flow cytometry
Description: Preliminary studies using DAAA indicate that this reagent is unusable on preparations of human hematopoietic cells because the signal intensity of the reagent is too high to resolve discrete cell populations by flow cytometry. The present invention provides a fluorescent ALDH substrate that is free of the problems associated with DAAA and that can be used in the purification of primitive human hematopoietic cells.

solubility in PBS [1]: freely soluble
Structure (SMILES): Cc1cc(C)n2c1C=C1C=CC(CCC(=O)NCC=O)=[N+]1[B-]2(F)F [BAAA, BODIPY aminoacetaldehyde]
molar concentration relative to the dansylated reagent (fold lower) (ALDH in L1210/cpa cells; 5 μM BAAA vs dansylated reagent): 10 fold
detection of ALDH+ cells (ALDH in L1210/cpa cells; L1210/cpa): able to detect ALDH^+ cells
lowest usable final concentration (ALDH in L1210/cpa cells; continuous cell lines): 5 µM
fluorescent response to BAAA (L1210 cells): essentially no response
conversion of BAAA / ALDH positivity [2]: positive for ALDH
molar concentration relative to dansyl aminoacetaldehyde (fold lower) (ALDH in UCB cells; 1 μM BAAA vs concentration of DAAA used for murine PHSC): 50 fold
optimal concentration for resolving ALDH^br subpopulations (ALDH in UCB cells; UCB cells 10^6 cells/ml, IMDM 2% FCS): 1 µM

Structure (SMILES): CC1=CC(C)=[N+]2C1=Cc1ccc(CCC(=O)NCC(=O)O)n1[B-]2(F)F [BODIPY Aminoacetate, BODIPY aminoacetate]
substrate status for the MDR efflux pump [3]: Substrate for the MDR Efflux Pump

stability of solution in DMSO ([4]; 5 mM in DMSO at 4° C.): up to 1 week
half life of the acetal ([4]; 1 N HCl, conversion to the acetaldehyde): 15 min
stability of lyophilized aliquots ([4]; lyophilized 0.5 micromole aliquots stored at -20° C.): stable indefinitely
Structure (SMILES): CCOC(CNC(=O)CCC1=[N+]2C(=Cc3c(C)cc(C)n3[B-]2(F)F)C=C1)OCC [BODIPY aminoacetaldehyde diethyl acetal]

Structure (SMILES): CN(C)c1cccc2c(S(=O)(=O)NCC=O)cccc12 [DAAA, dansyl aminoacetaldyde]
usability for resolving discrete cell populations [5]: unusable

Structure (SMILES): CCN(CC)c1ccc(C=O)cc1 [DEAB, diethylbenzaldehyde, reference compound]
block of the BAAA fluorescent response (ALDH in L1210/cpa cells; 10-fold molar excess of DEAB, L1210/cpa): totally blocked
inhibition of the BAAA response [2]: entirely inhibited
inhibition of the BAAA response (ALDH in UCB cells; excess DEAB, UCB cells): inhibited
